Laboratory results published in patent US20100119483A1, “PEPTIDE VIRAL ENTRY INHIBITORS” (Schering Corporation, priority 2004, published 2010).
Values joined by “and” are separate entries in the source; they are usually repeats but may differ in a detail not shown here. Identical values can stand only once.

Tested on: HCV pseudoparticles
Assay: HCV pseudoparticle (HCVpp) entry assay in Huh7 hepatoma cells, luciferase readout
Type: cell-based, hepatitis C virus
Conditions: for % of control at ~30 uM: percentage of hepatitis C virus cellular entry at 30 μM peptide vs uninhibited control
Method: HCV pseudotype particle generation. Single cycle HCV pseudoparticles are composed of a replication-defective HIV genome and HCV envelope proteins. These pseudoparticles were made by transfecting 293T cells with 5 ug of each pNL43E-R-luc (Chen et al., J. Virol. 68(2):654-60 (1994)) and plasmid expressing HCV envelope proteins pCMV/E1-2 with profection transfection kit from Promega (Madison, Wis.). The medium was refreshed 12-24 hours after transfection and supernatant was collected 48 hours after transfection. The supernatant from a transfection of only pNL43E-R-luc was used each time as a control for non specific entry events.
Infection of hepatoma cell lines with HCV pseudotype particles and screen for inhibitory peptides. The hepatoma cells, Huh7, was seeded at 8000 cells in 90 ul medium in 96-well plate. In the case of the inhibitor screen, the inhibitor was incubated with cells for one hour at 37° C. and then 50 ul viral supernatant was added to the cells 24 hours after seeding. The viral stock was pre-tittered and diluted to yield approximately 10,000 to 20,000 RLU. The cells were incubated at 37° C. with 5% CO2 for additional 72 hours and were harvested for luciferase assay. Peptide stocks were prepared in 100% DMSO at 10 mg/ml and were first screened at 100 ug/ml and then a dose responsive curve was generated with 10 points 3-fold titration starting from 100 ug/ml.
The peptide of SEQ ID NO: 77 was first serial diluted by the factor of 3 in 100% DMSO from 100 ug/ml and then transferred to the assay plates at 100-fold dilution. The peptide was first incubated with cells and HCVpp (A) or HIVpp (B), respectively, for 30 minutes at […] in this experiment. Then, the medium containing the peptide was removed from the cells and virus with peptide was added to the cells. Cells were incubated for 72 hours and then were harvested for luciferase assay. Two separate trials were performed.
In addition, the peptide of SEQ ID NO: 77 was mutated at several positions and assayed in the HCV entry assay discussed above. […] The assays were performed essentially as described above.

[1] = 0.1 nM of peptide (printed for three rows), two values per peptide and row
[2] = 0.3 nM of peptide, two values per peptide
[3] = 1 nM of peptide, two values per peptide
[4] = 3 nM of peptide, two values per peptide
[5] = 10 nM of peptide, two values per peptide
[6] = 30 nM of peptide, two values per peptide
[7] = 100 nM of peptide, two values per peptide
[8] = 300 nM of peptide, two values per peptide
[9] = 10000 nM of peptide, two values per peptide

Substance	% control (HCVpp entry), proline scanning [2]	% control (HCVpp entry), proline scanning [3]	% control (HCVpp entry), proline scanning [4]	% control (HCVpp entry), proline scanning [5]	% control (HCVpp entry), proline scanning [6]	% control (HCVpp entry), proline scanning [7]	% control (HCVpp entry), proline scanning [8]	% control (HCVpp entry), proline scanning [9]	% control (HCVpp entry), lysine scanning [1]	% control (HCVpp entry), lysine scanning [2]	% control (HCVpp entry), lysine scanning [3]	% control (HCVpp entry), lysine scanning [4]	% control (HCVpp entry), lysine scanning [5]	% control (HCVpp entry), lysine scanning [6]	% control (HCVpp entry), lysine scanning [7]	% control (HCVpp entry), lysine scanning [8]	% of control at ~30 uM [%]	other results
A-I-K-W-E-Y-V-L-P-L-F-L-L (AIKWEYVLPLFLL; HCV peptide) [SEQ ID NO: 123]	80 % control and 91 % control	108 % control and 77 % control	92 % control and 78 % control	78 % control and 76 % control	74 % control and 75 % control	72 % control and 61 % control	41 % control and 44 % control	61 % control and 51 % control										% control (HCVpp entry), proline scanning [1]: 78 % control and 81 % control and 104 % control and 86 % control and 117 % control and 94 % control; % control (HCVpp entry), proline scanning (30000 nM of peptide, two values per peptide): 31 % control and 49 % control
K-I-K-W-E-Y-V-L-L-L-F-L-L [SEQ ID NO: 101]									83 % control and 107 % control and 77 % control and 104 % control and 119 % control and 101 % control	96 % control and 103 % control	65 % control and 90 % control	52 % control and 77 % control	54 % control and 57 % control	37 % control and 28 % control	26 % control and 25 % control	26 % control and 29 % control	4	
A-I-K-W-E-Y-V-L-K-L-F-L-L (AIKWEYVLKLFLL; HCV peptide) [SEQ ID NO: 133]									78 % control and 85 % control and 96 % control and 101 % control and 87 % control and 116 % control	108 % control and 78 % control	96 % control and 82 % control	95 % control and 79 % control	77 % control and 113 % control	80 % control and 68 % control	75 % control and 60 % control	41 % control and 56 % control		% control (HCVpp entry), lysine scanning [9]: 24 % control and 39 % control
A-I-P-W-E-Y-V-L-L-L-F-L-L (AIPWEYVLLLFLL; HCV peptide) [SEQ ID NO: 117]	66 % control and 117 % control	68 % control and 87 % control	89 % control and 66 % control	75 % control	58 % control and 71 % control	38 % control and 54 % control	48 % control and 41 % control	54 % control and 31 % control										
A-I-K-W-A-Y-V-L-L-L-F-L-L (AIKWAYVLLLFLL; HCV peptide) [SEQ ID NO: 90, Ala-scan]																	13	% control (HCVpp entry), alanine scanning [1]: 105 % control and 98 % control and 82 % control and 106 % control and 116 % control and 96 % control; % control (HCVpp entry), alanine scanning [2]: 73 % control and 94 % control; % control (HCVpp entry), alanine scanning [3]: 66 % control and 98 % control; % control (HCVpp entry), alanine scanning [4]: 106 % control and 81 % control; % control (HCVpp entry), alanine scanning [5]: 66 % control and 46 % control; % control (HCVpp entry), alanine scanning [6]: 69 % control and 63 % control; % control (HCVpp entry), alanine scanning [7]: 51 % control and 43 % control; % control (HCVpp entry), alanine scanning [8]: 55 % control
